Columns and labels:
[1] = Extraction of phenol from 1% aqueous solution with high boiling solvents alone and with TOPO (Example 3, Table III); type: physicochemical; settings: 24° C., 10 minutes
Method: A number of high boiling solvents, which would allow recovery of the extracted phenol without the necessity of distilling the solvent, were evaluted and the distribution coefficient calculated for the solvent alone and containing 133 g/l of TOPO. The aqueous solution extracted contained 1% phenol, which was contacted with the solvent or solvent plus TOPO for 10 minutes at 24° C.

[2] = Concentration of TOPO obtainable in the extraction solution; type: physicochemical
From the text: It is advantageous in solvent extraction to maximize the loading of the extracted compound in the organic phase. This also permits a higher ratio of aqueous phase to organic phase (A/O) in the extraction process, that is, a greater volume of aqueous solution treated per volume of organic extractant. It is therefore desirable to maximize the concentration of phosphine oxide in the extraction solution. With TOPO, solutions containing in excess of 30% by weight are readily obtained.

[3] = Water solubility of the solvents
[4] = solvent + TOPO 133 g/l (head: TOPA), A/O = 0.5
[5] = solvent + TOPO 133 g/l, A/O = 1

Row | Compound | C aq. Final (phenol) [1, 4] | C aq. Final (phenol) [1, 5] | C aq. Final (phenol) ([1]; solvent alone, A/O = 1) | TOPO concentration of solutions readily obtained [2] | water solubility [3]
1 | O=C(c1ccccc1)c1ccccc1 [Benzophenone] | 37 ppm | 85 ppm |  |  | 
2 | CC(C)CC(=O)CC(C)C [DIBK, diisobutylketone, reference compound] | 26 ppm | 60 ppm | 285 ppm |  | 
3 | CC(C)OC(C)C [Diisopropyl ether, diisopropyl ether, reference compound] |  |  | 419 ppm |  | 
4 | c1ccc(Oc2ccccc2)cc1 [Diphenyl ether] | 23 ppm | 55 ppm | 3075 ppm |  | 
5 | c1ccc(Cc2ccccc2)cc1 [Diphenyl methane] | 21 ppm | 59 ppm |  |  | 
6 | CC(=O)CC(C)C [Methyl isobutyl ketone, reference compound] | 24 ppm | 43 ppm | 130 ppm |  | 
7 | CCCCCCCCP(=O)(CCCCCCCC)CCCCCCCC [TOPO, tri-n-octylphosphine oxide] |  |  |  | > 30 % by weight | 
8 | CCCCCCCCCCCCCO [Tridecanol] | 128 ppm | 515 ppm | 531 ppm |  | 
9 | Diisopropyl naphthalene | 18 ppm | 46 ppm | 5590 ppm |  | negligible water solubility
10 | Isopropyl naphthalene | 18 ppm | 45 ppm | 4690 ppm |  | negligible water solubility
